15 compounds from patent publication US7235584B2, “Non-psychotropic cannabinoids” (Pharmos Corporation, priority 2000, dated 2007) can be followed below.

Like-named read-outs stand apart in the source and are kept apart here.

The inhibition is the share of the control response that was lost under treatment. Higher therefore signals a strong effect. Usually IC50 stands for the concentration at which inhibition is half-maximal.

In assay [1] the test system is TNFα. The experiment in a line: Inhibition of TNFα in LPS-activated macrophage cell cultures (ELISA). In kind it is cell-based. The protocol:
Specific aspects of the inflammatory response cascade are mediated by the cytokine TNFα. Inhibition of TNFα production and/or inhibition of TNFα release by the new analogs are assayed in macrophage cell cultures activated with LPS. This serves as another indication of the general anti-inflammatory potential of the novel compounds.
The method for macrophage cell culture growth is identical to the one described in PGE2 assay. Aliquots of the supernatants collected following stimulation with LPS were quantitated for TNFα by enzyme linked immunosorbent assay (ELISA) using HRP conjugated to anti-TNFα antibodies and […] for the colorimetric reaction. The peroxidase catalyzed color reaction was stopped by acidification and the absorbance at 450 nm is measured. The absorbance at this wavelength is proportional to the concentration of TNFα in the sample determined from a standard curve plotting the concentrations of TNFα standards versus their absorbance.
(ELISA stands for enzyme-linked immunosorbent assay.)

Assay [2] concerns NMDA receptor. Briefly: [3H]MK-801 displacement radioligand binding, rat forebrain membranes. The method, then: The identification of possible recognition sites for PRS-211 analogs was carried out by measuring the ability of these PRS-211 analogs to inhibit the binding of MK-801 to rat forebrain membranes.
Brains were removed from Sprague-Dawley rats no more than 5 min after decapitation. Membrane preparations were isolated according to a procedure described previously (Eshhar et al., Brain Res. 476:57, 1989). Prior to radioligand binding measurements, endogenous glutamate present in membranes was removed from the preparation by subjecting the membranes to 3–4 successive washings in 10 mM Tris HCl pH 7.2, performed at 4° C.
The specific binding of the new analogs to NMDA receptors was determined by their ability to displace [^3H]MK-801 from NMDA receptor in rat forebrain preparations. Specifically, rat-forebrain membranes (0.1 mg) were incubated for 2 hours at room temperature with 10 nM of tritiated MK-801 and with the PRS-211 compounds at 3 doses each. Non-specific binding was determined by the use of 0.1 mM MK-801. Following the incubation, bound radioligand was separated from unbound by filtration through GF/B filters. The filters were counted in a β-counter and log of analog concentrations versus % of [^3H]MK-801 specific binding was plotted. The IC50 was calculated from this plot.
Binding of [^3H]MK-801 to membranes was carried out in the presence of 30 μM glycine and 10 μM L-glutamate. Membranes (250 μg protein) were resuspended in 50 mM tris-acetate pH 7.4 buffer and incubated with 10 nM [^3H]MK-801, either alone or in the presence of PRS-211 compounds at 0.1–100 μM concentrations for three hours at room temperature (RT). Reaction buffers used in the different radioligand binding studies contained 10% of an ethanol/Emulphor 620/deionized water mixture. The ratio (by volume) of the respective components in the mixture was 20/3/57. This mixture is required for solubilizing PRS-211 compounds at concentrations above 30 μM. Reaction volume was 1 ml. Non-specific [^3H]MK-801 binding was determined in the presence of 100 μM unlabeled MK-801.
Concentration dependence of certain PRS-211 analogs on inhibition of [^3H]MK-801 binding is illustrated in FIG. 1.

In assay [3] the test system is T1, nitric oxide synthase (NOS).
T1 construct: endogenous in cells
Briefly: Inhibition of nitric oxide synthase, fluorimetric nitrite assay in LPS-stimulated macrophage supernatants. In kind it is cell-based. The settings on record: macrophage cell cultures. The protocol: As one aspect of the anti-oxidative potential of the novel analogs they were tested for their ability to inhibit the enzyme nitric oxide synthase (NOS). This assay can also serve as another indication of the anti-inflammatory cascade, as well as the anti-oxidative mechanisms.
The final products of NOS are Nitrite (NO2) and Nitrate (NO3). The in vitro fluorimetric assay provides an accurate method for the measurement of the Nitrite, which is the majority of NO products. The principle of the fluorimetric assay is based on the addition of DAN (2,3-diaminonaphthalene) to the aliquots of the supernatants collected from macrophage cell cultures incubated with the new analogs and stimulated with LPS. Following, NaOH was added to convert Nitrite to a fluorescent compound 1(H)-naphthtriazole. The fluorescence was measured immediately in a fluorimeter using excitation wavelength of 365 nm and an emission wavelength of 450 nm.

Assay [4] concerns transient MCAo in rats. The experiment in a line: Transient middle cerebral artery occlusion (MCAo), infarct size evaluation. In kind it is in vivo. The settings on record: transient MCAo. The source says: The middle cerebral artery is the cerebral blood vessel most susceptible to stroke in humans. In animals, coagulation, permanent ligation or permanent placement of an occluding thread ink the artery produces a permanent focal stroke affecting the MCA territory. Transient ligation or occlusion results in transient focal stroke. Both transient and permanent focal strokes result in varying degrees of edema and infarction in the affected brain regions. The ability of compounds to reduce the volumes of edema and infarction is considered a measure of their potential as anti-stroke treatment.
• a. Male rats (8/treatment group) 320–380 gr. (Harlan Israel). • b. Halothane (Rhone Poulenc France) • c. Pentobarbitone (Pental Veterinary, CTS Israel). • d. Poly-L-Lysine (Sigma, USA). • e. Silk suture material 3-0 and 4-0. • f. Nylon (Polyamid) suture material 3-0. Four cm pieces were cut and positioned in a solution of 1% Poly-L-Lysine for 1 minute and dried in an oven (60 ° C.) for 60 minutes. The tip of each piece was rounded under a flame. • g. Saline (Teva Medical). • h. Blank cremophor ethanol cosolvent (Pharmos). • i. Dexanabinol in cremophor ethanol cosolvent 50 mg/ml. (Both Dexanabinol and its vehicle were diluted in saline prior to drug administration. • j. Analogs PRS-211,092, PRS-211,095, PRS-211,128 PRS-211,132 and PRS-211,220 in cremophor ethanol cosolvent, 50 mg/ml. • k. The analogs were diluted in saline prior to drug administration. Methods Transient MCAo
a. Surgical details of the MCAO method used for testing dexanabinol analogs, are presented in Belayev, et al., (Belayev, Busto, Weizhao, and Ginsberg, Stroke 26:2313–2319, 1995) which is incorporated herein in its entirety by reference.
b. Two hours after the start of MCAo, the animals were reanesthetized with halothane, the neck wound was re-opened and the nylon thread pulled out of the Internal carotid artery (ICA). The skin wound was then closed with 3-0 silk suture material and the animals allowed to recover from the anesthesia.
c. Three sets of animals were tested. In the first test immediately (2+0 hours) before thread removal the animals were injected IV with either analogs PRS 211,095, PRS 211,128, PRS 211,132, or Dexanabinol (PRS 211,007) each at a dosage of 5 mg/kg. One group of animals was treated with 5mi/kg vehicle alone. In another group, the animals subjected to “sham” operation, the suture was passed into the ICA, as described above, but immediately withdrawn. […] Laser Doppler Flow (LDF) determined the success of MCAo—a drop of more then 50% in cerebral blood flow was considered as a sign of successful MCAO. […]
A detailed investigation of neurological performance was carried out on the first, third and the 7th day after the MCAo. […] Animals were scored according to their performance: […]

For assay [5], the system named is tail flick model in mice. The experiment in a line: Tail flick model: analgesic effect and tolerance to morphine. It counts as in vivo, ICR male mice. An excerpt: A mice model of acute pain, the tail flick model, was used to test the ability of compounds to prolong the analgesic activity of opioids, by preventing the development of tolerance, and their ability to reverse established tolerance.
The following animal model of acute pain was used to assess the potential analgesic effects of test compounds either alone or in combination with morphine. […] In this model the nociceptive stimulus is thermal and the latency time till the animal flicks its tail is monitored (Le Bars D., Gozariu M. & Cadden S. W., Pharmacol. Rev. 53: 597–652, 2001).
Hyperalgesia to radiant heat was assessed as follows. ICR male mice (20–30 g average body weight, Harlan, Israel) were injected with test compounds i.p. at the volume dose of 5 ml/kg. Each treatment group contained at least 6 animals. The test compounds were dissolved in Cremophor®:ethanol (70:30 weight/weight) and diluted 1:20 in saline prior to injection. Morphine HCl was directly dissolved in saline. Its vehicle was also included as control. Pain threshold was determined 30 minutes post-administration by measuring the foot-withdrawal latency defined as the time from the onset of radiant heat to foot withdrawal. The cut-off time was preset to 10 seconds in order to prevent tissue damage. […] Test compounds (5 mg/kg) and vehicle (5 ml/kg) were administered 15 minutes before morphine and pain threshold was determined 30 minutes after the first injection of morphine on day 1, 5, 8 and 10. […] Pain threshold was determined on day 1 and 10.
In each type of study, the animals were tested on given days 30 minutes after morphine injection in the tail flick apparatus (Socrel, model DS 20). Animals were gently held while their tails were located above the photoelectric cell. The tails were then illuminated (21V) at 2 cm from the distal tip and the latency time, measured in seconds, was recorded in duplicates. The results are expressed either as absolute latency time or as percent of animals that enjoyed significant analgesia as measured by the fact that their latency time is at least twice the latency time for vehicle treated animals. At the end of the study, the animals were euthanized by i.p. injection of 100 mg/kg sodium pentobarbitone.
The differences between the latency times among various treatment groups was analyzed by analysis of variance (ANOVA) followed by post-hoc Duncan test. The differences between the % of animals showing analgesia among various treatment groups was analyzed by analysis of variance (ANOVA) followed by post-hoc Fisher exact test. A value of p<0.05 is considered to be statistically significant.

Setting [6] is: displacement of [3H]MK-801, rat forebrain membranes, read-out: NMDA BINDING IC50.

T1 sequence (P35228 whole entry): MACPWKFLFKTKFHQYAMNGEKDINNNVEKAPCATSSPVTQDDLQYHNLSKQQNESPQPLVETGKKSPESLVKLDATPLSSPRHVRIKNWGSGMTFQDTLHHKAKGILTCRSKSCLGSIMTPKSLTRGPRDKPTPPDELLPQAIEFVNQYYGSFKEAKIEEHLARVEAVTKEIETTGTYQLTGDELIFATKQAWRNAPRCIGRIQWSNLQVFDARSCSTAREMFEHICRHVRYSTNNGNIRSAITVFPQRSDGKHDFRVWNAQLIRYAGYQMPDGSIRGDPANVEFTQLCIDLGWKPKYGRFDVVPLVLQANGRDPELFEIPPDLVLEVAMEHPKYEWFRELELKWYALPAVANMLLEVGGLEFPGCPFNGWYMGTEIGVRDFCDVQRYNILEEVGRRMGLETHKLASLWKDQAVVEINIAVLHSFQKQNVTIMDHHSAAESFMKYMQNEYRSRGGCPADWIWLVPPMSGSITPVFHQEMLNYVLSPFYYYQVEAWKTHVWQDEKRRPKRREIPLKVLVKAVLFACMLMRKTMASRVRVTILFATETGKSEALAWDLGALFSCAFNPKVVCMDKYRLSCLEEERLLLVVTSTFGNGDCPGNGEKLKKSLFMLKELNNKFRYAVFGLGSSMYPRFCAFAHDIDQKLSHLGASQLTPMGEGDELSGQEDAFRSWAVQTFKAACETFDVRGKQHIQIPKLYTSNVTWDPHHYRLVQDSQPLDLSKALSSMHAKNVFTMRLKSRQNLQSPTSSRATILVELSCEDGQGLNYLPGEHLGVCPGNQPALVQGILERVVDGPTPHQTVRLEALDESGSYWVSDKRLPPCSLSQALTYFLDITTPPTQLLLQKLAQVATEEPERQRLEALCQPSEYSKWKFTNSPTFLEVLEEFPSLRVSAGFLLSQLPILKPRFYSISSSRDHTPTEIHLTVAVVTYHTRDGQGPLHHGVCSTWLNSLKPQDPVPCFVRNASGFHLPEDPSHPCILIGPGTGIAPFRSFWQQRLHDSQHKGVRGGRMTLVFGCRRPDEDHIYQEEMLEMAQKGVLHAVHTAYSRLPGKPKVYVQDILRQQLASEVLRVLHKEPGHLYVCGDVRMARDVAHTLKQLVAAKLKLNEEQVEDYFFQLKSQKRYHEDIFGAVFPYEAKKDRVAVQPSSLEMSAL

As for `CCCCCCC(C)(C)c1cc(O)c2c(c1)OC(C)(C)[C@H]1CC=C(CN3CCC(C)CC3)CC21` (single isomer, unassigned; (+)) [211,251-000], the inhibition at 10 µM in assay [1] is 0%; in assay [3], 37%. Further, the “NMDA receptor binding / affinity (in words)” value in assay [2] is on record as “do not exhibit substantial NMDA receptor binding”. Moreover, the IC50 in assay [2] (setting [6]) was over 100 µM.

On to `CCCCCCC(C)(C)c1cc(O)c2c(c1)OC(C)(C)[C@H]1CC=C(CC#N)C[C@H]21` [211,006-000], for which, in assay [3], at 10 µM the inhibition was 19%.

`CCCCCCC(C)(C)c1cc(O)c2c(c1)OC(C)(C)[C@H]1CC=C(C[S+](C)[O-])C[C@H]21` (some centres unmarked) [211,041-000] came in with an inhibition at 10 µM in assay [3] of 72%.

`CCCCCCC(C)(C)c1cc(O)c2c(c1)OC(C)(C)[C@H]1CC=C(Cc3ccccc3)C[C@H]21` [211,119-000]: in assay [3], the inhibition at 10 µM stood at 0%.

Take `CCCCCCC(C)(C)c1cc(O)c2c(c1)OC(C)(C)[C@H]1CC=C(CN3CCCC3)C[C@H]21` [211,128-000]: the “NMDA receptor binding / affinity (in words)” value in assay [2] was “no detectable affinity”. The IC50 was over 20 µM in assay [2] (setting [6]) and over 20 µM in assay [2] (rat forebrain membranes, read-out: mean IC50 of [3H]MK-801 binding (FIG. 2)). The same compound showed an inhibition at 10 µM in assay [3] of 27%. Further, in assay [4], the “function, reduction of mortality and brain morphometry” value is “inactive”.

Consider `CCCCCCC(C)(C)c1cc(O)c2c(c1)OC(C)(C)[C@H]1CC=C(CN3CCOCC3)C[C@H]21` [211,132-000], for which the inhibition at 10 µM in assay [3] was 40%.

Turning to `CCCCCCC(C)(C)c1cc(O)c2c(c1)OC(C)(C)[C@H]1CC=C(CN3CCNCC3)CC21` (some centres unmarked) [211,133-000], in assay [2] (setting [6]), the IC50 was over 100 µM.

On to `CCCCCCC(C)(C)c1cc(O)c2c(c1)OC(C)(C)[C@H]1CC=C(CN3CCNC(C)C3)CC21` (some centres unmarked) [211,134-000], for which, in assay [2] (setting [6]), the IC50 was over 100 µM.

As for `CCCCCCC(C)(C)c1cc(O)c2c(c1)OC(C)(C)[C@H]1CC=C(CN3CC=CCC3)C[C@H]21` [211,145-000], the inhibition at 10 µM in assay [3] worked out at 60%.

Consider `CCCCCCC(C)(C)c1cc(O)c2c(c1)OC(C)(C)[C@H]1CC=C(CN3CCCCC3)C[C@H]21` [211,159-000], for which, in assay [2] (setting [6]), the IC50 is over 20 µM. Besides, the inhibition at 10 µM in assay [3] is 27%.

Take `CCCCCCC(C)(C)c1cc(O)c2c(c1)OC(C)(C)[C@H]1CC=C(CN3CCN=C3SC)C[C@H]21` [211,204-000]: the inhibition at 10 µM in assay [3] stood at 85%.

`CCCCCCC(C)(C)c1cc(O)c2c(c1)OC(C)(C)[C@H]1CC=C(COCC(O)CO)C[C@H]21` (some centres unmarked) [211,211-000] had an inhibition at 10 µM in assay [3] of 0%.

`CCCCCCC(C)(C)c1cc(O)c2c(c1)OC(C)(C)[C@H]1CC=C(CN3CC=CC3)C[C@H]21` [211,212-000] returned an inhibition at 10 µM in assay [3] of 0%.

For the compound `COc1ccc2c(c1)[C@]13CCCC[C@@H]1[C@H](C2)N(C)CC3` [dextromethorphan, reference compound], the “reversal of established tolerance to morphine” value in assay [5] (in combination with morphine from day 11, tested day 12, 15, 17, PRS-211,220 5 mg/kg, dextromethorphan 20 mg/kg) is “statistically undistinguishable from morphine alone”.

As for `CN1CC[C@]23c4c5ccc(O)c4O[C@H]2[C@@H](O)C=C[C@H]3[C@H]1C5` [morphine, reference compound], the latency time in assay [5] (5 mg/kg, plain analgesic study, 30 minutes post-administration) is 7.5 s.
